# From ChEMBL document CHEMBL1122367, “Synthesis and antihypertensive activity of a series of spiro[1,3,4,6,7,11b-hexahydro-2H-benzo[a]quinolizine-2,5'-oxazolidin-2'-one]s” (1983)
# How the values were obtained:
# Rattus norvegicus [1] = assay: Percentage fall in systolic blood pressure in spontaneously hypertensive rats 2 hr after 50 mg/kg p.o. administration; Not significant.; type: functional, organism-based; set-up: dose 50 mg/kg; settings: Artery, at 50 mg/kg
# Rattus norvegicus [2] = assay: Antihypertensive activity as percentage fall in systolic blood pressure in spontaneously hypertensive rats 4 hr after 50 mg/kg po administration; NS means nonsignificant difference between treated and control group; type: functional, organism-based; set-up: dose 50 mg/kg; settings: Artery, at 50 mg/kg
# Rattus norvegicus [3] = assay: Antihypertensive activity as percentage fall in systolic blood pressure in spontaneously hypertensive rats 1 hr after 50 mg/kg po administration; type: functional, Artery
# Rattus norvegicus [4] = assay: Percentage fall in systolic blood pressure in spontaneously hypertensive rats 3h after 50 mg/kg p.o. administration; Not significant.; type: functional, organism-based; set-up: dose 50 mg/kg; settings: Artery, at 50 mg/kg
# Rattus norvegicus [5] = assay: Percentage fall in systolic blood pressure in spontaneously hypertensive rats 1 hr after 50 mg/kg p.o. administration; Not significant.; type: functional, organism-based; set-up: dose 50 mg/kg; settings: Artery, at 50 mg/kg
# Rattus norvegicus [6] = assay: Antihypertensive activity as percentage fall in systolic blood pressure in spontaneously hypertensive rats 3h after 50 mg/kg po administration; type: functional, Artery
# Rattus norvegicus [7] = assay: Antihypertensive activity as percentage fall in systolic blood pressure in spontaneously hypertensive rats 4 hr after 50 mg/kg po administration; type: functional, Artery
# Rattus norvegicus [8] = assay: Antihypertensive activity as percentage fall in systolic blood pressure in spontaneously hypertensive rats 2 hr after 25 mg/kg po administration; type: functional, Artery
# Rattus norvegicus [9] = assay: Percentage fall in systolic blood pressure in spontaneously hypertensive rats 2 hr after 50 mg/kg p.o. administration.; type: functional, Artery; settings: route oral
# Rattus norvegicus [10] = assay: Antihypertensive activity as percentage fall in systolic blood pressure in spontaneously hypertensive rats 1 hr after 25 mg/kg po administration; type: functional, Artery
# Rattus norvegicus [11] = assay: Antihypertensive activity as percentage fall in systolic blood pressure in spontaneously hypertensive rats 3h after 25 mg/kg po administration;NS means nonsignificant difference between treated and control group; type: functional, organism-based; set-up: dose 25 mg/kg; settings: Artery, at 25 mg/kg
# Rattus norvegicus [12] = assay: Antihypertensive activity as percentage fall in systolic blood pressure in spontaneously hypertensive rats 4 hr after 25 mg/kg po administration; type: functional, Artery
# Rattus norvegicus [13] = assay: Antihypertensive activity as percentage fall in systolic blood pressure in spontaneously hypertensive rats 2 hr after 25 mg/kg po administration;NS means nonsignificant difference between treated and control group; type: functional, organism-based; set-up: dose 25 mg/kg; settings: Artery, at 25 mg/kg
# Rattus norvegicus [14] = assay: Antihypertensive activity as percentage fall in systolic blood pressure in spontaneously hypertensive rats 4 hr after 25 mg/kg po administration;NS means nonsignificant difference between treated and control group; type: functional, organism-based; set-up: dose 25 mg/kg; settings: Artery, at 25 mg/kg
SMILES,Fall (Rattus norvegicus [1]),Fall (Rattus norvegicus [2]),Fall (Rattus norvegicus [3]),Fall (Rattus norvegicus [4]),Fall (Rattus norvegicus [5]),Fall (Rattus norvegicus [6]),Fall (Rattus norvegicus [7]),Fall (Rattus norvegicus [9]),other results
CCCCOc1cc2c(cc1OC)CCN1CC[C@@]3(CNC(=O)O3)C[C@@H]21,Not significant,Not significant,15%,Not significant,,,,,
COc1cc2c(cc1OC)[C@@H]1C[C@]3(CNC(=O)O3)[C@@H](c3ccccc3)CN1CC2,Not significant,Not significant,,,Not significant,-9%,,,
COc1cc2c(cc1OC)[C@@H]1C[C@]3(CNC(=O)O3)[C@@H](C)CN1CC2,,,47%,,,37%,25%,41%,Fall (Rattus norvegicus [8]): 19%; Fall (Rattus norvegicus [10]): 27%; Fall (Rattus norvegicus [11]): Not significant; Fall (Rattus norvegicus [12]): 15%
O=C1NC[C@]2(CCN3CCc4ccccc4[C@@H]3C2)O1,Not significant,Not significant,,Not significant,Not significant,,,,
COc1cc2c(cc1OC)[C@@H]1C[C@]3(CCN1CC2)CN(C)C(=O)O3,Not significant,,27%,Not significant,,,18%,,
CCCN1C[C@]2(CCN3CCc4cc(OC)c(OC)cc4[C@@H]3C2)OC1=O,Not significant,Not significant,,Not significant,Not significant,,,,
CC[C@@H]1NC(=O)O[C@]12CCN1CCc3cc(OC)c(OC)cc3[C@@H]1C2,,,45%,,,30%,27%,37%,
CC[C@H]1CN2CCc3cc(OC)c(OC)cc3[C@@H]2C[C@]12CNC(=O)O2 [listing 1 of 2 here],,,,,,,,,Fall (Rattus norvegicus [7]; 50 mg/kg): 28%; Fall (Rattus norvegicus [8]): 30%; Fall (Rattus norvegicus [6]; 50 mg/kg): 33%; Fall (Rattus norvegicus [9]; 50 mg/kg): 40%; Fall (Rattus norvegicus [3]; 50 mg/kg): 52%; Fall (Rattus norvegicus [10]): 44%
CCC[C@H]1CN2CCc3cc(OC)c(OC)cc3[C@@H]2C[C@]12CNC(=O)O2,,,41%,,,17%,16%,27%,
CC[C@H]1CN2CCc3cc4c(cc3[C@@H]2C[C@]12CNC(=O)O2)OCO4,Not significant,Not significant,,Not significant,Not significant,,,,
CN1C[C@@]2(CCN3CCc4ccccc4[C@@H]3C2)OC1=O,Not significant,Not significant,,Not significant,Not significant,,,,
CCOc1cc2c(cc1OC)[C@@H]1C[C@]3(CNC(=O)O3)[C@@H](CC)CN1CC2,,Not significant,39%,,,17%,,32%,
CCN1C[C@@]2(CCN3CCc4cc(OC)c(OC)cc4[C@@H]3C2)OC1=O,Not significant,Not significant,31%,Not significant,,,,,
COc1cc2c(cc1OC)[C@@H]1C[C@]3(CCN1CC2)CN(C(C)C)C(=O)O3,,Not significant,29%,Not significant,,,,16%,
COc1cc2c(cc1OC)[C@@H]1C[C@@]3(CCN1CC2)CN(C)C(=O)O3,,,28%,Not significant,,,21%,14%,
COc1cc2c(cc1OC)[C@@H]1C[C@]3(CCN1CC2)CNC(=O)O3,Not significant,Not significant,,Not significant,Not significant,,,,
COc1cc2c(cc1OC)[C@@H]1C[C@@]3(CCN1CC2)CNC(=O)O3,Not significant,Not significant,20%,Not significant,Not significant,12%,15%,13%,Fall (Rattus norvegicus [8]): 19%; Fall (Rattus norvegicus [10]): 22%; Fall (Rattus norvegicus [11]): Not significant
CCCOc1cc2c(cc1OC)CCN1CC[C@@]3(CNC(=O)O3)C[C@@H]21,Not significant,Not significant,,Not significant,Not significant,,,,

SMILES,Fall (Rattus norvegicus [1]),Fall (Rattus norvegicus [2]),Fall (Rattus norvegicus [3]),Fall (Rattus norvegicus [4]),Fall (Rattus norvegicus [5]),Fall (Rattus norvegicus [6]),Fall (Rattus norvegicus [7]),Fall (Rattus norvegicus [9]),other results
CC[C@H]1CN2CCc3cc(OC)c(OC)cc3[C@@H]2C[C@]12CNC(=O)O2 (racemic),,,,,,,,,Fall (Rattus norvegicus [7]; 50 mg/kg): 33%; Fall (Rattus norvegicus [6]; 50 mg/kg): 29%; Fall (Rattus norvegicus [9]; 50 mg/kg): 37%; Fall (Rattus norvegicus [3]; 50 mg/kg): 45%
CC[C@H]1NC(=O)O[C@]12CCN1CCc3cc(OC)c(OC)cc3[C@@H]1C2,,,41%,,,25%,25%,38%,
C[C@@H]1CN2CC[C@@]3(CNC(=O)O3)C[C@H]2c2ccccc21,Not significant,Not significant,16%,Not significant,,,,,
O=C1NC[C@@]2(CCN3C[C@@H](c4ccccc4)c4ccccc4[C@@H]3C2)O1,Not significant,Not significant,,Not significant,Not significant,,,,
CCCC[C@H]1CN2CCc3cc(OC)c(OC)cc3[C@@H]2C[C@]12CNC(=O)O2,,,34%,,,13%,13%,21%,
O=C1NC[C@@]2(CCN3CCc4cc5c(cc4[C@@H]3C2)OCO5)O1,Not significant,Not significant,28%,,,14%,,,
CC[C@H]1CN2CCc3ccccc3[C@@H]2C[C@]12CNC(=O)O2,Not significant,Not significant,25%,Not significant,,,,,
COc1cc2c(cc1OC)[C@@H]1C[C@]3(CNC(=O)O3)[C@@H](Cc3ccccc3)CN1CC2,Not significant,,27%,Not significant,,,19%,,
CC1Cc2ccccc2[C@@H]2C[C@@]3(CCN12)CNC(=O)O3 (stereo partly drawn),Not significant,Not significant,,Not significant,Not significant,,,,
COc1cc2c(cc1OC)[C@@H]1C[C@]3(CCN1CC2)CN(C(C)(C)C)C(=O)O3,,Not significant,39%,Not significant,,,,20%,
O=C1NC[C@@]2(CCN3CCc4ccccc4[C@@H]3C2)O1,,,22%,,,14%,12%,26%,Fall (Rattus norvegicus [13]): Not significant; Fall (Rattus norvegicus [10]): 20%; Fall (Rattus norvegicus [11]): Not significant; Fall (Rattus norvegicus [12]): 25%
C[C@H]1CN2CC[C@@]3(CNC(=O)O3)C[C@H]2c2ccccc21,Not significant,Not significant,,Not significant,Not significant,,,,
CC[C@H]1CN2CCc3cc(OC)c(OC)cc3[C@@H]2C[C@@]12OC(=O)N[C@H]2CC,,,43%,,,30%,24%,48%,
CCOc1cc2c(cc1OC)CCN1C[C@H](CC)[C@@]3(CNC(=O)O3)C[C@@H]21,,Not significant,25%,,,17%,,22%,
CC[C@H]1CN2CCc3cc(OC)c(OC)cc3[C@@H]2C[C@]12CNC(=O)O2 [listing 2 of 2 here],Not significant,Not significant,,Not significant,Not significant,,,,Fall (Rattus norvegicus [14]): Not significant; Fall (Rattus norvegicus [11]): Not significant
CCCCN1C[C@]2(CCN3CCc4cc(OC)c(OC)cc4[C@@H]3C2)OC1=O,Not significant,Not significant,,Not significant,Not significant,,,,
COc1cc2c(cc1OC(C)C)[C@@H]1C[C@@]3(CCN1CC2)CNC(=O)O3,Not significant,Not significant,19%,,,8%,,,
CN1C[C@]2(CCN3CCc4ccccc4[C@@H]3C2)OC1=O,,Not significant,,,Not significant,-12%,,-10%,
